Laboratory results published in EPA's ToxRefDB 2.

How the values were obtained:
rat [1] = settings: Subchronic oral toxicity in rodents, other, Feed, dose end: 90 day, group: systemic
mouse [2] = settings: Subchronic oral toxicity in rodents, b6c3f1, Feed, dose end: 15 week
rabbit = settings: Prenatal developmental toxicity study, new zealand white, Oral, Gavage/Intubation, dose end: 19 GD
mouse [3] = settings: Combined chronic toxicity/carcinogenicity, b6c3f1, Oral, Feed, dose end: 104 week, group: systemic
rat [4] = settings: Combined chronic toxicity/carcinogenicity, sprague dawley, Oral, Feed, dose end: 104 week, group: systemic
rat [5] = settings: Prenatal developmental toxicity study, sprague dawley, Oral, Gavage/Intubation, dose end: 15 GD
dog [6] = settings: Subchronic oral toxicity in nonrodent, beagle, Gavage/Intubation, dose end: 13 week, group: systemic, systemic / hematology / mean corpuscular hemoglobin (mch) / mean corpuscular hemoglobin (mch) + systemic / hematology / mean corpuscular …
rat [7] = settings: Multigenerational reproductive toxicity study, sprague dawley, Oral, Feed, dose end: 2 generation
dog [8] = settings: Chronic toxicity; beagle; Oral; Gavage/Intubation; dose end: 52 week; group: systemic; systemic / clinical chemistry / albumin / albumin + systemic / clinical chemistry / alkaline phosphatase (alp/alk) / alkaline phosphatase (…
rat [9] = settings: Combined chronic toxicity/carcinogenicity, sprague dawley, Oral, Feed, dose end: 24 month, group: systemic
rat [10] = settings: Prenatal developmental toxicity study, sprague dawley, Oral, Gavage/Intubation, dose end: 15 GD; remark: listed apart in the source
rat [11] = settings: Subchronic oral toxicity in rodents, sprague dawley, Feed, dose end: 13 week, group: systemic
mouse [12] = settings: Carcinogenicity, cd1, Oral, Feed, dose end: 78 week, group: systemic
rat [13] = settings: Subchronic oral toxicity in rodents, sprague dawley, Gavage/Intubation, dose end: 90 day, group: systemic
rat [14] = settings: Multigenerational reproductive toxicity study, sprague dawley, Oral, Gavage/Intubation, dose end: 2 generation
[15] = systemic / in life observation / body weight / body weight gain
[16] = systemic / in life observation / body weight / body weight gain + systemic / clinical chemistry / albumin / albumin + systemic / clinical …
[17] = group: maternal, reproductive / reproductive performance / fertility / fertility
[18] = group: systemic, systemic / clinical chemistry / alkaline phosphatase (alp/alk) / alkaline phosphatase (alp/alk) + systemic / hematology / hematocrit (hct…
[19] = group: systemic, systemic / in life observation / food consumption / food consumption
[20] = group: developmental, systemic / in life observation / body weight / fetal weight
[21] = group: developmental, systemic / in life observation / body weight / fetal weight + developmental / developmental malformation / bone / misshapen + developmental…
[22] = group: maternal, reproductive / reproductive performance / postimplantation loss / postimplantation loss + reproductive / reproductive performance / …
[23] = systemic / clinical chemistry / albumin / albumin + systemic / clinical chemistry / alkaline phosphatase (alp/alk) / alkaline phosphatase (…
[24] = systemic / organ weight / kidney / relative to body weight + systemic / organ weight / kidney / absolute
[25] = group: developmental, developmental / developmental malformation / bone / absent
[26] = group: maternal, systemic / in life observation / body weight / body weight gain
[27] = group: offspring, systemic / in life observation / body weight / offspring (pup) weight gain + systemic / in life observation / body weight / offspring (pup) …
[28] = group: parental, systemic / in life observation / body weight / body weight + systemic / in life observation / body weight / body weight gain
[29] = group: reproductive, reproductive / offspring survival early / litter size / litter size
[30] = group: reproductive, reproductive / offspring survival early / litter size / litter size + reproductive / reproductive performance / fertility / fertility
[31] = group: developmental, developmental / developmental malformation / bone / incomplete ossification + developmental / developmental malformation / bone / split …
[32] = group: maternal, systemic / in life observation / body weight / body weight gain + systemic / in life observation / clinical signs / salivation + …
[33] = systemic / in life observation / food consumption / food consumption
[34] = systemic / in life observation / food consumption / food consumption + systemic / clinical chemistry / cholesterol / cholesterol + systemic…
[35] = systemic / clinical chemistry / albumin / albumin + systemic / clinical chemistry / protein / protein + systemic / pathology microscopic / …
[36] = systemic / organ weight / spleen / absolute + systemic / organ weight / spleen / relative to body weight + systemic / organ weight / spleen…
[37] = group: offspring, systemic / organ weight / spleen / absolute
[38] = group: offspring, systemic / organ weight / spleen / absolute + systemic / pathology microscopic / kidney / edema + systemic / pathology microscopic / kidney…
[39] = group: parental, systemic / in life observation / body weight / body weight + systemic / in life observation / body weight / body weight gain + systemic / in…

How did the LEL (rat [1]; [15]) turn out when CON(C)C(=O)Nc1ccc(Oc2ccc3c(c2)OC(C)(OC)CC3(C)C)cc1 (stereo not drawn) [Metobenzuron] was run?
Its LEL is 7.29 mg/kg/day.

What about the LOAEL (rat [1]; [15]) of the same molecule?
The LOAEL was 45 mg/kg/day.

And the NEL (rat [1]; [15])?
The NEL was < 7.29 mg/kg/day.

What about the NOAEL (rat [1]; [16]) of the same molecule?
Its NOAEL is 6.05 mg/kg/day.

What about the LEL (mouse [2]; [17]) of the same molecule?
Its LEL is 308 mg/kg/day.

And the LOAEL (mouse [2]; [17])?
Its LOAEL is > 308 mg/kg/day.

What about the NEL (mouse [2]; [17]) of the same molecule?
Its NEL is 91 mg/kg/day.

And the NOAEL (mouse [2]; [17])?
Its NOAEL is ≥ 308 mg/kg/day.

What about the LOAEL (mouse [2]; [18]) of the same molecule?
The LOAEL was 91 mg/kg/day.

What about the NOAEL (mouse [2]; [18]) of the same molecule?
Its NOAEL is 20 mg/kg/day.

And the LEL (mouse [2]; [19])?
The LEL was 25 mg/kg/day.

And the NEL (mouse [2]; [19])?
The NEL was < 25 mg/kg/day.

What about the LOAEL (rabbit; [20]) of the same molecule?
The LOAEL was 100 mg/kg/day.

What about the LEL (rabbit; [21]) of the same molecule?
Its LEL is 100 mg/kg/day.

What about the NEL (rabbit; [21]) of the same molecule?
Its NEL is 50 mg/kg/day.

What about the NOAEL (rabbit; [21]) of the same molecule?
Its NOAEL is 50 mg/kg/day.

What about the LEL (rabbit; [22]) of the same molecule?
Its LEL is 100 mg/kg/day.

What about the LOAEL (rabbit; [22]) of the same molecule?
Its LOAEL is 100 mg/kg/day.

What about the NEL (rabbit; [22]) of the same molecule?
Its NEL is 50 mg/kg/day.

And the NOAEL (rabbit; [22])?
The NOAEL was 50 mg/kg/day.

And the LOAEL (mouse [3]; [23])?
The LOAEL was 139 mg/kg/day.

And the NOAEL (mouse [3]; [23])?
Its NOAEL is 41.1 mg/kg/day.

And the LEL (mouse [3]; [24])?
The LEL was 6.9 mg/kg/day.

What about the NEL (mouse [3]; [24]) of the same molecule?
The NEL was < 6.9 mg/kg/day.

What about the LEL (rat [4]; systemic / in life observation / body weight / body weight) of the same molecule?
The LEL was 4.4 mg/kg/day.

And the LOAEL (rat [4]; [15])?
Its LOAEL is 23.1 mg/kg/day.

What about the NEL (rat [4]; [16]) of the same molecule?
Its NEL is 1.5 mg/kg/day.

What about the NOAEL (rat [4]; [16]) of the same molecule?
Its NOAEL is 4.4 mg/kg/day.

And the LEL (rat [5]; [25])?
Its LEL is 25 mg/kg/day.

What about the NEL (rat [5]; [25]) of the same molecule?
The NEL was < 25 mg/kg/day.

What about the LOAEL (rat [5]; [20]) of the same molecule?
The LOAEL was 50 mg/kg/day.

And the NOAEL (rat [5]; group: developmental, systemic / in life observation / body weight / fetal weight + developmental / developmental malformation / bone / absent + developmental / …)?
The NOAEL was 25 mg/kg/day.

And the LEL (rat [5]; [26])?
The LEL was 25 mg/kg/day.

And the LOAEL (rat [5]; [26])?
Its LOAEL is 25 mg/kg/day.

And the NEL (rat [5]; [26])?
The NEL was < 25 mg/kg/day.

And the NOAEL (rat [5]; [26])?
Its NOAEL is < 25 mg/kg/day.

What about the LEL (dog [6]) of the same molecule?
The LEL was 25 mg/kg/day.

And the LOAEL (dog [6])?
The LOAEL was 25 mg/kg/day.

What about the NEL (dog [6]) of the same molecule?
Its NEL is 5 mg/kg/day.

What about the NOAEL (dog [6]) of the same molecule?
The NOAEL was 5 mg/kg/day.

And the LOAEL (rat [7]; group: offspring, systemic / in life observation / body weight / offspring (pup) weight gain)?
The LOAEL was 18.8 mg/kg/day.

What about the LEL (rat [7]; [27]) of the same molecule?
The LEL was 18.8 mg/kg/day.

And the NEL (rat [7]; [27])?
The NEL was 3.75 mg/kg/day.

And the NOAEL (rat [7]; [27])?
Its NOAEL is 3.75 mg/kg/day.

What about the LEL (rat [7]; [28]) of the same molecule?
Its LEL is 18.8 mg/kg/day.

What about the LOAEL (rat [7]; [28]) of the same molecule?
Its LOAEL is 37.5 mg/kg/day.

What about the NEL (rat [7]; [28]) of the same molecule?
Its NEL is 3.75 mg/kg/day.

And the NOAEL (rat [7]; [28])?
The NOAEL was 18.8 mg/kg/day.

What about the LEL (rat [7]; [29]) of the same molecule?
The LEL was 18.8 mg/kg/day.

And the LOAEL (rat [7]; [29])?
The LOAEL was 18.8 mg/kg/day.

What about the NEL (rat [7]; [30]) of the same molecule?
Its NEL is 3.75 mg/kg/day.

And the NOAEL (rat [7]; [30])?
Its NOAEL is 3.75 mg/kg/day.

And the LEL (dog [8])?
The LEL was 75 mg/kg/day.

And the LOAEL (dog [8])?
Its LOAEL is 75 mg/kg/day.

And the NEL (dog [8])?
Its NEL is 5 mg/kg/day.

What about the NOAEL (dog [8]) of the same molecule?
The NOAEL was 5 mg/kg/day.

What does the source list for CCSC(C)CC1CC(=O)C(C(CC)=NOC/C=C/Cl)=C(O)C1 (stereo not drawn) [Clethodim]?
NOAEL (rat [9]; systemic / in life observation / body weight / body weight gain + systemic / organ weight / liver / absolute + systemic / pathology …): 19 mg/kg/day; LOAEL (rat [9]; systemic / in life observation / body weight / body weight gain + systemic / organ weight / liver / relative to body weight + systemic / …): 100 mg/kg/day; LEL (rat [9]; systemic / pathology microscopic / bone marrow / hypocellularity): 0.64 mg/kg/day; NEL (rat [9]; systemic / pathology microscopic / bone marrow / hypocellularity + systemic / in life observation / body weight / body weight + systemic / …): 0.18 mg/kg/day; LEL (rat [10]; group: developmental, developmental / developmental malformation / bone / absent + developmental / developmental malformation / mouth / jaw / maxillary …): 100 mg/kg/day; LOAEL (rat [10]; [31]): 350 mg/kg/day; NEL (rat [10]; [31]): 10 mg/kg/day; NOAEL (rat [10]; [31]): 100 mg/kg/day; LOAEL (rat [10]; group: maternal, systemic / in life observation / body weight / body weight gain + systemic / in life observation / clinical signs / salivation): 350 mg/kg/day; LEL (rat [10]; group: maternal, systemic / in life observation / body weight / body weight gain + systemic / in life observation / clinical signs / salivation + systemic / …): 350 mg/kg/day; NEL (rat [10]; [32]): 100 mg/kg/day; NOAEL (rat [10]; [32]): 100 mg/kg/day; LEL (rat [11]; [33]): 25 mg/kg/day; LOAEL (rat [11]; [33]): 25 mg/kg/day; NEL (rat [11]; [34]): 2.3 mg/kg/day; NOAEL (rat [11]; [34]): 2.3 mg/kg/day; LEL (mouse [12]; systemic / pathology microscopic / liver / adenoma + systemic / pathology microscopic / lung / adenoma + systemic / hematology / erythrocyte…): 30 mg/kg/day; NEL (mouse [12]; systemic / pathology microscopic / liver / adenoma + systemic / pathology microscopic / lung / adenoma + systemic / pathology microscopic / …): 3 mg/kg/day; LOAEL (mouse [12]; systemic / pathology microscopic / liver / hypertrophy + systemic / organ weight / liver / relative to body weight + systemic / organ weight…): 150 mg/kg/day; NOAEL (mouse [12]; systemic / pathology microscopic / liver / hypertrophy + systemic / pathology microscopic / liver / adenoma + systemic / hematology / …): 30 mg/kg/day

How did the LOAEL (rat [13]; [35]) turn out when O=S(=O)([O-])C(F)(F)C(F)(F)C(F)(F)C(F)(F)F.[K+] [PFBS-K] was run?
The LOAEL was > 600 mg/kg/day.

What about the NOAEL (rat [13]; [35]) of the same molecule?
The NOAEL was ≥ 600 mg/kg/day.

What about the LEL (rat [13]; [36]) of the same molecule?
Its LEL is 60 mg/kg/day.

And the NEL (rat [13]; [36])?
The NEL was < 60 mg/kg/day.

And the LEL (rat [14]; [37])?
The LEL was 30 mg/kg/day.

What about the NEL (rat [14]; [37]) of the same molecule?
Its NEL is < 30 mg/kg/day.

What about the LOAEL (rat [14]; [38]) of the same molecule?
The LOAEL was > 1000 mg/kg/day.

And the NOAEL (rat [14]; [38])?
Its NOAEL is ≥ 1000 mg/kg/day.

And the LOAEL (rat [14]; [39])?
The LOAEL was > 1000 mg/kg/day.

And the NEL (rat [14]; [39])?
Its NEL is 100 mg/kg/day.

What about the NOAEL (rat [14]; [39]) of the same molecule?
Its NOAEL is ≥ 1000 mg/kg/day.

What about the LEL (rat [14]; group: parental, systemic / pathology microscopic / kidney / edema + systemic / pathology microscopic / kidney / hyperplasia + systemic / organ weight / …) of the same molecule?
The LEL was 300 mg/kg/day.
